Reference: patent US8486946B2, “Pyrazolo [4,3-c] cinnolin-3-one M1 receptor positive allosteric modulators” (Merck Sharp & Dohme Corp., priority 2009, dated 2013)

target: T1, acetylcholine muscarinic M1 receptor (Homo sapiens, UniProt P11229); assay: Muscarinic FLIPR intracellular calcium assay for M1 positive allosteric modulator activity in CHOnfat/hM1 cells; type: cell-based; conditions: 4 min preincubation, then EC20 acetylcholine (3 nM final), calculated from FLIPR values, read-out: IP Value (inflection point)
T1 construct: expressed in transfected cells; host or cells: CHOnfat (CHO cells; also called CHOK1/hM1)
T1 sequence (P11229 1-460): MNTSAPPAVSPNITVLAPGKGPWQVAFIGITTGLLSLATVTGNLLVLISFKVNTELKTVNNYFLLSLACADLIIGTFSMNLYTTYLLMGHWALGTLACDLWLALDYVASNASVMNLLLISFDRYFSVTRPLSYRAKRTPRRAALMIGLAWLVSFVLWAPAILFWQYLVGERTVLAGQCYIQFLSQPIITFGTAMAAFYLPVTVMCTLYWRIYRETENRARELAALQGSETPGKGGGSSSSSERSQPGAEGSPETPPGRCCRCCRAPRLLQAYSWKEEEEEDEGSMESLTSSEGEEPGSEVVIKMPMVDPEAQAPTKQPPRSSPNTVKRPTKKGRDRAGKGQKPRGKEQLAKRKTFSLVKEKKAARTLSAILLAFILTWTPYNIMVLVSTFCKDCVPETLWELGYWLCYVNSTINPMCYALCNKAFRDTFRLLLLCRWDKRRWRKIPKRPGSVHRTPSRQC
Method: The assay studies the effect of one or several concentrations of test compounds on basal or acetylcholine-stimulated Ca^2+ levels using FLIPR.
Compounds are prepared and subjected to a preincubation period of 4 min. Thereafter, a single EC20 concentration of acetylcholine is added to each well (3 nM final). The intracellular Ca^2+ level of each sample is measured and compared to an acetylcholine control to determine any modulatory activity.
Cells: CHOnfat/hM1, hM2, hM3 or hM4 cells are plated 24 hr before the assay at a density of 18,000 cells/well (100 μL) in a 384 well plate. CHOnfat/hM1 and CHOnfat/hM3 Growth Medium: 90% DMEM (Hi Glucose); 10% HI FBS; 2 mM L-glutamine; 0.1 mM NEAA; Pen-Strep; and 1 mg/ml Geneticin, are added. For M2Gqi5CHOnfat and M4Gqi5CHOnfat cells, an additional 600 ug/ml hygromycin is added.
Equipment: 384 well plate, 120 μL addition plate; 96-well Whatman 2 ml Uniplate Incubator, 37° C., 5% CO2; Skatron EMBLA-384 Plate Washer; Multimek Pipetting System; Genesis Freedom 200 System; Mosquito System; Temo Nanoliter Pipetting System; and FLIPR^384 Fluorometric Imaging Plate Reader System are used.
Buffers. Assay Buffer: Hanks Balanced Salt Solution, with 20 mM Hepes, 2.5 mM Probenecid (Sigma P-8761) first dissolved in 1 N NaOH, 1% Bovine Serum Albumin (Sigma A-9647). Dye Loading Buffer: Assay Buffer plus 1% Fetal Bovine Serum and Fluo-4AM/Pluronic Acid Mixture. 2 mM Fluo-4AM ester stock in DMSO (Molecular Probes F-14202) Concentration of 2 μM in buffer for a final concentration of 1 μM in Assay. 20% Pluronic Acid Solution stock, with concentration of 0.04% in Buffer, 0.02% in Assay.
65 μL of 2 mM Fluo-4AM are mixed with 130 μL of 20% Pluronic Acid. The resulting solution and 650 μL FBS is added to the assay buffer for a total volume of 65 mL. Positive Controls: 4-Br-A23187: 10 mM in DMSO; final concentration 10 μM. Acetylcholine: 10 mM in water, working stock at both 20 μM and 30 μM in assay buffer, final concentration of 10 μM. This is used to check the maximum stimulation of the CHOK1/hM1 cells. 20 μM (2×) acetylcholine is added in the preincubation part of the assay, and the 30 μM (3×) stock is added in the second part. (EC20)Acetylcholine: 10 mM in water, working stock of 9 nM (3×), and final concentration in assay is 3 nM. This is used after the preincubation with test compounds. Addition of the EC20 Acetylcholine to each well with a test compound will ascertain any modulator activity. 24 wells contain 3 nM Acetylcholine alone as a control.
Determining Activity of Putative Compounds:
Screening Plate Compounds are titrated in 96-well plates (columns 2-11), 100% DMSO, started at a concentration of 15 mM (150× stock concentration), and 3-fold serial dilutions using Genesis Freedom200 System. Four 96-well plates are combined into a 384-well plate using Mosquito Nanoliter Pipetting System by transferring 1 μl of serial diluted compounds to each well, and 1 mM acetylcholine (100× stock concentration) were added as a control. Using Temo, 49 μl assay buffer is added to each well of the 384-well plate right before assay.
In a 96-well Whatman 2 ml Uniplate, 9 nM Acetylcholine (3×) is pipetted into wells corresponding to the screening compounds, and into control wells. The 30 μM acetylcholine control (3×) is added into control wells, and the 3× agonist plate is transferred into a 384 well plate.
Cells are washed three times with 100 μL of buffer, leaving 30 μL of buffer in each well. Using Multimek, 30 μL of Dye Loading Buffer is added into each well and incubated at 37° C., 5% CO2 for up to one hr.
After 60 min, the cells are washed three times with 100 μL of buffer, leaving 30 μL of buffer in each well. The cell plate, screening plate, and agonist addition plates are placed on the platform in the FLIPR and the door closed. A signal test to check background fluorescence and basal fluorescence signal is performed. Laser intensity is adjusted if necessary. […]

First: CC1CCOCC1n1nc2c3ccccc3n(Cc3ccc(-n4cccn4)cc3)nc-2c1=O (racemic) [Example 71, (±)-2-[cis,trans-4-methyltetrahydro-2H-pyran-3-yl]-5-[4-(1H-pyrazol-1-yl)benzyl]-2,5-dihydro-3H-pyrazolo[4,3-c]cinnolin-3-one]
Second: C[C@@H]1CCOC[C@@H]1n1nc2c3ccccc3n(Cc3ccc(-n4cccn4)cc3)nc-2c1=O (single isomer, unassigned) [Example 73, cis-2-[4-Methyltetrahydro-2,1-pyran-3-yl]-5-[4-(1H-pyrazol-1-yl)benzyl]-2,5-dihydro-3H-pyrazolo[4,3-c]cinnoline-3-one]
The EC50 of the first is 8.7-fold lower: 89 nM for the first, 771 nM for the second.

Going from `C[C@H]1CCOC[C@@H]1n1nc2c3ccccc3n(Cc3ccc(-n4cccn4)cc3)nc-2c1=O` (single isomer, unassigned) [Example 74] to `C[C@@H]1CCOC[C@@H]1n1nc2c3ccccc3n(Cc3ccc(-n4cccn4)cc3)nc-2c1=O` (single isomer, unassigned) [Example 75, cis-2-[4-Methyltetrahydro-2H-pyran-3-yl]-5-[4-(1H-pyrazol-1-yl)benzyl]-2,5-dihydro-3H-pyrazolo[4,3-c]cinnoline-3-one], the EC50 falls from 636 nM to 158 nM (4-fold).

Going from `C[C@H]1CCOC[C@@H]1n1nc2c3ccccc3n(Cc3ccc(-n4cccn4)cc3)nc-2c1=O` (single isomer, unassigned) [Example 72, trans-2-[4-Methyltetrahydro-2H-pyran-3-yl]-5-[4-(1H-pyrazol-1-yl)benzyl]-2,5-dihydro-3H-pyrazolo[4,3-c]cinnoline-3-one] to `O=c1c2nn(Cc3ccc(-n4cccn4)cc3)c3c(Cl)cccc3c-2nn1[C@H]1CCOC[C@@H]1O` (single isomer, unassigned) [Example 62, 6-Chloro-2-(trans-3-hydroxytetrahydro-2H-pyran-4-yl)-5-[4-(1H-pyrazol-1-yl)benzyl]-2,5-dihydro-3H-pyrazolo[4,3-c]cinnolin-3-one], the EC50 falls from 47 nM to 21 nM (2.2-fold). The second is the more potent here.

Going from `Cc1ccccc1-n1nc2c3ccccc3n(Cc3ccc(Br)cn3)nc-2c1=O` [Example 21, 5-[(5-Bromopyridin-2-yl)methyl]-2-(2-methylphenyl)-2,5-dihydro-3H-pyrazolo[4,3-c]cinnolin-3-one] to `Cc1ccccc1-n1nc2c3ccccc3n(Cc3ccc(-n4ccnc4)nc3)nc-2c1=O` [Example 23, 5-{[6-(1H-Imidazol-1-yl)pyridine-3-yl]methyl}-2-(2-methylphenyl)-2,5-dihydro-3H-pyrazolo[4,3-c]cinnolin-3-one], the EC50 falls from 2860 nM to 748 nM (3.8-fold). The second is the more potent here.

First: Cc1ccccc1-n1nc2c3ccccc3n(Cc3ccc(N4CCOCC4)nc3)nc-2c1=O [Example 81, 2-(2-Methylphenyl)-5-{[6-(morpholin-4-yl)pyridine-3-yl]methyl}-2,5-dihydro-3H-pyrazolo[4,3-c]cinnolin-3-one]
Second: Cc1ccccc1-n1nc2c3ccccc3n(Cc3ccc(-c4cnn(C)c4)nc3)nc-2c1=O [Example 25, 2-(2-Methylphenyl)-5-{[6-(1-methyl-1H-pyrazol-4-yl)pyridine-3-yl]methyl}-2,5-dihydro-3H-pyrazolo[4,3-c]cinnolin-3-one]
The EC50 of the first is 9.5-fold higher: 1370 nM for the first, 144 nM for the second.

First: O=c1c2nn(Cc3ccc(-n4cccn4)cc3)c3c(Cl)cccc3c-2nn1[C@@H]1CCCC[C@H]1O [Example 61]
Second: O=c1c2nn(Cc3ccc(-n4cccn4)cc3)c3c(Cl)cccc3c-2nn1[C@H]1CCOC[C@@H]1O (single isomer, unassigned) [Example 63, 6-Chloro-2-(trans-3-hydroxytetrahydro-2H-pyran-4-yl)-5-[4-(1H-pyrazol-1-yl)benzyl]-2,5-dihydro-3H-pyrazolo[4,3-c]cinnolin-3-one]
The EC50 of the first is 14-fold lower: 42 nM for the first, 593 nM for the second.

Compared with `O=c1c2nn(Cc3ccc(-n4cccn4)cc3)c3ccccc3c-2nn1-c1ccccc1F` [Example 1, 2-(2-Fluorophenyl)-5-{[4-(1H-pyrazol-1-yl)phenyl]methyl}-2,5-dihydro-3H-pyrazolo[4,3-c]cinnolin-3-one], `N#Cc1cccc(F)c1-n1nc2c3ccccc3n(Cc3ccc(-n4cccn4)cc3)nc-2c1=O` [Example 13, 3-Fluoro-2-(3-oxo-5-{[4-(1H-pyrazol-1-yl)phenyl]methyl}-3,5-dihydro-2H-pyrazolo[4,3-c]cinnolin-2-yl)benzonitrile] is 2-fold lower in EC50: 28 nM for the first, 14 nM for the second.

Going from `Cc1ccc(-c2ccc(Cn3nc4c(=O)n(-c5cccc(C)c5C)nc-4c4ccccc43)cn2)cn1` [Example 90, 2-(2,3-Dimethylphenyl)-5-[(6′-methyl-2,3′-bipyridin-5-yl)methyl]-2,5-dihydro-3H-pyrazolo[4,3-c]cinnolin-3-one] to `Cc1nc(F)ccc1-n1nc2c3ccccc3n(Cc3ccc(-c4cnn(C)c4)nc3)nc-2c1=O` [Example 86, 2-(6-Fluoro-2-methylpyridin-3-yl)-5-{[6-(1-methyl-1H-pyrazol-4-yl)pyridin-3-yl]methyl}-2,5-dihydro-3H-pyrazolo[4,3-c]cinnolin-3-one], the EC50 rises from 29 nM to 225 nM (7.8-fold). The first is the more potent here.

`O=c1c2nn(Cc3ccc(-n4cccn4)cc3)c3ccccc3c-2nn1CC(O)CO` (centres unmarked) [Example 11, 2-(2,3-Dihydroxypropyl)-5-[4-(1H-pyrazol-1-yl)benzyl]-2,5-dihydro-3H-pyrazolo[4,3-c]cinnolin-3-one] gave an EC50 of 193 nM.
